Laboratory results taken from patent EP0662819B1, “AN ANTIVIRALLY ACTIVE PHARMACEUTICAL OIL-IN-WATER EMULSION CONTAINING 9-[(2-HYDROXYETHOXY)METHYL]GUANINE (ACYCLOVIR) OR A SALT OR ESTER THEREOF” (A/S GEA Farmaceutisk Fabrik, priority 1992, dated 1994).
Converted amounts (≈) assume the structure as drawn.

Test: Solubility of acyclovir in glycerol formal/water and glycerol formal/propylene glycol/water mixtures
Assay type: physicochemical
Settings: room temperature
Method: A surplus of acyclovir is added to glycerol formal/water mixtures and glycerol formal/propylene glycol/water mixtures at room temperature, and the mixtures are then stirred for 2 hours and filtered. Subsequent to adequate dilution with 0.1 N NaOH the solutions are spectrophotometrically measured at 260 nm against 0.1 N NaOH. A 0.01% solution of acyclovir in 0.1 N NaOH is used as standard.

- solubility at 2 h (0 percent by volume glycerol formal in water, stirred 2 hours): 1.17 mg/mL (≈ 5.2 mM)
- solubility at 2 h (10% glycerol formal in water, organic solvent or mixture, 10 percent by volume glycerol formal in water, stirred 2 hours): 1.63 mg/mL (≈ 7.24 mM)
- solubility at 2 h (25% glycerol formal in water, organic solvent or mixture, 25 percent by volume glycerol formal in water, stirred 2 hours): 2.64 mg/mL (≈ 11.7 mM)
- solubility at 2 h (50% glycerol formal in water, organic solvent or mixture, 50 percent by volume glycerol formal in water, stirred 2 hours): 4.37 mg/mL (≈ 19.4 mM)
- solubility at 2 h (60% glycerol formal in water, organic solvent or mixture, 60 percent by volume glycerol formal in water, stirred 2 hours): 4.67 mg/mL (≈ 20.7 mM)
- solubility at 2 h (75% glycerol formal in water, organic solvent or mixture, 75 percent by volume glycerol formal in water, stirred 2 hours): 4.15 mg/mL (≈ 18.4 mM)
- solubility at 2 h (90% glycerol formal in water, organic solvent or mixture, 90 percent by volume glycerol formal in water, stirred 2 hours): 2.97 mg/mL (≈ 13.2 mM)
- solubility at 2 h (glycerol formal/water 40/20, organic solvent or mixture, Glycerol formal/propylene glycol/water 40/0/20 g/g/ml): 5.73 mg/mL (≈ 25.4 mM)
- solubility at 2 h (organic solvent or mixture, 100 percent by volume glycerol formal, stirred 2 hours): 3.27 mg/mL (≈ 14.5 mM)
- solubility at 2 h (organic solvent or mixture, Glycerol formal/propylene glycol/water 11/29/20 g/g/ml): 4.71 mg/mL (≈ 20.9 mM)
- solubility at 2 h (organic solvent or mixture, Glycerol formal/propylene glycol/water 20/20/20 g/g/ml): 4.6 mg/mL (≈ 20.4 mM)
- solubility at 2 h (organic solvent or mixture, Glycerol formal/propylene glycol/water 30/10/20 g/g/ml): 5.2 mg/mL (≈ 23.1 mM)
- solubility at 2 h (propylene glycol/water 40/20, organic solvent or mixture, Glycerol formal/propylene glycol/water 0/40/20 g/g/ml): 3.44 mg/mL (≈ 15.3 mM)
SMILES: Nc1nc2c(ncn2COCCO)c(=O)[nH]1 [acyclovir, 9-[(2-hydroxyethoxy)methyl]guanine]
